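Values below derive from 48-hour exposures of cells grown in 96-well plates, with endpoints linearly interpolated between the two concentrations bracketing the appropriate inhibition level. Abbreviation: GI50, concentration required for 50% inhibition of growth.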 Calls of active or inactive are those of the source. No stated cut-off is given here; in the data, active = GI50 up to about 1.1 µM and inactive = higher.
Assays:
Assay in all cases: growth of human tumour cells (NCI), 48 h
[1] = system: NCI-H23
[2] = system: MDA-MB-231
[3] = system: KM12
[4] = system: EKVX
[5] = system: ACHN
[6] = system: SF-295
[7] = system: T47D
[8] = system: NCI/ADR-RES
[9] = system: IGROV-1
[10] = system: RXF 393
[11] = system: A498
[12] = system: HCT-15
[13] = system: UACC-257
[14] = system: CAKI-1
[15] = system: OVCAR-5
[16] = system: COLO 205
[17] = system: NCI-H522
[18] = system: SF-268
[19] = system: TK-10
[20] = system: HL-60

| Compound | GI50 [1] | GI50 [2] | GI50 [3] | GI50 [4] | GI50 [5] | GI50 [6] | GI50 [7] | GI50 [8] | GI50 [9] | GI50 [10] | GI50 [11] | GI50 [12] [µM] | GI50 [13] | GI50 [14] | GI50 [15] | GI50 [16] | GI50 [17] | GI50 [18] | GI50 [19] | GI50 [20] |
| --- | --- | --- | --- | --- | --- | --- | --- | --- | --- | --- | --- | --- | --- | --- | --- | --- | --- | --- | --- | --- |
| CCOC(=O)c1cn(-c2ccc([N+](=O)[O-])cc2)c(=S)n2c1nc1ccccc12 | 34.1 µM (inactive) | 30.9 µM (inactive) | 30.1 µM (inactive) | 53.7 µM (inactive) | 32 µM (inactive) | 45.6 µM (inactive) | 58.6 µM (inactive) | 20.8 µM (inactive) | 54.1 µM (inactive) | 63.5 µM (inactive) | 20.6 µM (inactive) | 35.4 | 30.7 µM (inactive) | 42.9 µM (inactive) | > 100 µM (inactive) | 23.2 µM (inactive) | – | – | – | – |
| CCCCCNc1nonc1N | > 100 µM (inactive) | > 100 µM (inactive) | > 100 µM (inactive) | > 100 µM (inactive) | > 100 µM (inactive) | > 100 µM (inactive) | > 100 µM (inactive) | > 100 µM (inactive) | > 100 µM (inactive) | > 100 µM (inactive) | > 84.9 µM (inactive) | > 100 | > 100 µM (inactive) | > 100 µM (inactive) | > 100 µM (inactive) | > 100 µM (inactive) | > 100 µM (inactive) | > 100 µM (inactive) | > 100 µM (inactive) | – |
| CCCCCCCCCCCCCCCCCCNc1ccn(C2OC(CO)C(OP(=O)(O)OCC(O)COP(=O)(O)OCC3OC(n4cc(F)c(NCCCCCCCCCCCCCCCCCC)nc4=O)CC3O)C2O)c(=O)n1 (stereo not drawn) | > 50 µM (inactive) | > 50 µM (inactive) | > 50 µM (inactive) | > 50 µM (inactive) | > 50 µM (inactive) | > 50 µM (inactive) | > 50 µM (inactive) | > 50 µM (inactive) | > 50 µM (inactive) | – | > 50 µM (inactive) | > 50 | > 50 µM (inactive) | > 50 µM (inactive) | > 50 µM (inactive) | > 50 µM (inactive) | > 50 µM (inactive) | > 50 µM (inactive) | > 50 µM (inactive) | > 50 µM (inactive) |
| COc1c(-c2ccc(F)cc2)oc2cc(O)cc(O)c2c1=O | 29.6 µM (inactive) | 20 µM (inactive) | 30.5 µM (inactive) | 14.6 µM (inactive) | 30.7 µM (inactive) | 26.1 µM (inactive) | 18.8 µM (inactive) | 25.9 µM (inactive) | 21.4 µM (inactive) | – | 47.6 µM (inactive) | 18.5 | – | 24.3 µM (inactive) | 25.5 µM (inactive) | 20.9 µM (inactive) | 20.5 µM (inactive) | 40 µM (inactive) | – | 30.9 µM (inactive) |
| O=C(O)C1C2CCC(O2)C1C(=O)Nc1cccc2cccnc12 (stereo not drawn) | > 100 µM (inactive) | > 100 µM (inactive) | > 100 µM (inactive) | > 100 µM (inactive) | > 100 µM (inactive) | > 100 µM (inactive) | > 100 µM (inactive) | > 100 µM (inactive) | > 100 µM (inactive) | > 100 µM (inactive) | > 100 µM (inactive) | > 100 | > 100 µM (inactive) | > 100 µM (inactive) | > 100 µM (inactive) | – | 88.5 µM (inactive) | – | > 100 µM (inactive) | – |
| COc1cc(/C=C/c2cc(/C=C/c3ccc(O)c(OC)c3)oc(=O)c2)ccc1O | 4.06 µM (inactive) | 13.9 µM (inactive) | 3.18 µM (inactive) | 3.1 µM (inactive) | 3.26 µM (inactive) | 2.74 µM (inactive) | 0.272 µM (active) | 4.38 µM (inactive) | 4.67 µM (inactive) | – | 3.9 µM (inactive) | 3.12 | 5.25 µM (inactive) | 3.61 µM (inactive) | 32.8 µM (inactive) | 13.1 µM (inactive) | 2.87 µM (inactive) | 3.94 µM (inactive) | 3.78 µM (inactive) | – |
| CC(C)=CCc1c2c(c3occ(-c4ccc(O)cc4)c(=O)c3c1O)CC(C(C)(C)O)O2 (stereo not drawn) [SENEGALENSIN] | 18.7 µM (inactive) | 14.4 µM (inactive) | 16.8 µM (inactive) | – | 14.8 µM (inactive) | 12.1 µM (inactive) | 10.3 µM (inactive) | 15.7 µM (inactive) | 2.8 µM (inactive) | 13.6 µM (inactive) | 16.1 µM (inactive) | 13.1 | 15.7 µM (inactive) | 18.8 µM (inactive) | 19.1 µM (inactive) | 14.6 µM (inactive) | 15.8 µM (inactive) | 26.5 µM (inactive) | 16.5 µM (inactive) | 12.4 µM (inactive) |
| Cc1ccc(S(=O)(=O)N/N=C2\C3CC4CC(C3)C2C4)cc1 (stereo not drawn) | > 100 µM (inactive) | > 100 µM (inactive) | > 100 µM (inactive) | – | – | > 100 µM (inactive) | > 100 µM (inactive) | > 100 µM (inactive) | > 100 µM (inactive) | > 100 µM (inactive) | – | > 100 | > 100 µM (inactive) | > 100 µM (inactive) | > 100 µM (inactive) | > 100 µM (inactive) | > 100 µM (inactive) | – | > 100 µM (inactive) | > 100 µM (inactive) |
| CC1=NN(c2cccc(Cl)c2)C2(SCC(=O)N2c2nc3ccccc3s2)/C1=C\c1ccc(N(C)C)cc1 (stereo not drawn) | 31.8 µM (inactive) | 40.7 µM (inactive) | > 100 µM (inactive) | > 100 µM (inactive) | 26.1 µM (inactive) | 42.2 µM (inactive) | 34.8 µM (inactive) | > 100 µM (inactive) | 54.7 µM (inactive) | 21.8 µM (inactive) | 27.9 µM (inactive) | 56.1 | 56.8 µM (inactive) | 85.9 µM (inactive) | > 100 µM (inactive) | – | 65.8 µM (inactive) | 38.7 µM (inactive) | 33 µM (inactive) | > 100 µM (inactive) |
| O=C(Oc1cncc(Cl)c1)c1cc2ccccc2sc1=O | 58.7 µM (inactive) | 61.5 µM (inactive) | 40.9 µM (inactive) | > 100 µM (inactive) | 86.1 µM (inactive) | 96.2 µM (inactive) | > 100 µM (inactive) | 78.3 µM (inactive) | 49.5 µM (inactive) | 23 µM (inactive) | – | 38.5 | > 100 µM (inactive) | > 100 µM (inactive) | > 100 µM (inactive) | 49.9 µM (inactive) | 19.5 µM (inactive) | 49.5 µM (inactive) | 76.7 µM (inactive) | 47.6 µM (inactive) |
| O=C1Nc2ccccc2/C1=N/NC(=S)N1CCCCC1 | 1.39 µM (inactive) | 0.393 µM (active) | 0.0841 µM (active) | 1.31 µM (inactive) | 0.397 µM (active) | 0.256 µM (active) | 5.94 µM (inactive) | 0.0415 µM (active) | 0.138 µM (active) | 0.0906 µM (active) | 0.356 µM (active) | 0.19 | – | 0.904 µM (active) | 4.05 µM (inactive) | 0.774 µM (active) | 2.79 µM (inactive) | 0.493 µM (active) | 0.295 µM (active) | – |
| CC[C@@]1(O)C(=O)OCc2c1cc1n(c2=O)Cc2c-1nc1ccc(O)cc1c2[Si](C)(C)C(C)(C)C [AR-67] | < 0.01 µM (active) | 0.286 µM (active) | 0.024 µM (active) | 0.333 µM (active) | < 0.01 µM (active) | – | < 0.01 µM (active) | 0.0324 µM (active) | < 0.019 µM (active) | < 0.01 µM (active) | 0.0211 µM (active) | 0.122 | < 0.0149 µM (active) | < 0.01 µM (active) | 0.139 µM (active) | 0.031 µM (active) | < 0.01 µM (active) | < 0.01 µM (active) | 0.443 µM (active) | < 0.01 µM (active) |
| CC(C)(C)OC(=O)NCCNCCNc1ccccc1 | > 100 µM (inactive) | > 100 µM (inactive) | > 100 µM (inactive) | > 100 µM (inactive) | > 100 µM (inactive) | > 100 µM (inactive) | 85.5 µM (inactive) | > 100 µM (inactive) | > 100 µM (inactive) | > 100 µM (inactive) | – | > 100 | > 100 µM (inactive) | > 100 µM (inactive) | > 100 µM (inactive) | > 100 µM (inactive) | > 100 µM (inactive) | – | > 100 µM (inactive) | – |
| C/C(Nc1ccc(F)cc1)=C1/CCOC1=O | > 100 µM (inactive) | > 100 µM (inactive) | 1.38 µM (inactive) | > 100 µM (inactive) | 1.8 µM (inactive) | 16.5 µM (inactive) | 63.2 µM (inactive) | > 100 µM (inactive) | > 100 µM (inactive) | 4.73 µM (inactive) | > 100 µM (inactive) | > 100 | > 100 µM (inactive) | – | – | 4.7 µM (inactive) | > 100 µM (inactive) | > 100 µM (inactive) | > 100 µM (inactive) | 12.4 µM (inactive) |
| Fc1ccc(C(OCCN2CC3CC2CN3CCCc2ccccc2)c2ccc(F)cc2)cc1 (stereo not drawn) | 11.4 µM (inactive) | 4.61 µM (inactive) | 4.85 µM (inactive) | 6.01 µM (inactive) | 11.5 µM (inactive) | 6.19 µM (inactive) | 2.07 µM (inactive) | 5.64 µM (inactive) | 10.1 µM (inactive) | – | 4.98 µM (inactive) | 4.63 | 3.69 µM (inactive) | 10.1 µM (inactive) | 11.3 µM (inactive) | 1.68 µM (inactive) | 7.98 µM (inactive) | 10.2 µM (inactive) | 11.2 µM (inactive) | 2.71 µM (inactive) |
| Cc1ccc2nc(N/N=C/c3sccc3C)cc(C)c2c1 | > 100 µM (inactive) | 14.7 µM (inactive) | > 100 µM (inactive) | > 100 µM (inactive) | > 100 µM (inactive) | – | > 100 µM (inactive) | > 100 µM (inactive) | 37.2 µM (inactive) | 61.8 µM (inactive) | > 100 µM (inactive) | > 100 | > 100 µM (inactive) | > 100 µM (inactive) | > 100 µM (inactive) | > 100 µM (inactive) | – | > 100 µM (inactive) | 29.1 µM (inactive) | 28.4 µM (inactive) |
